Assay results taken from US20030035851A1, “Anti-cancer agents and method of use thereof” (priority 2001, published 2003).
≈ marks a conversion by molar mass, not a printed value.

Tests used:
LNCaP and DU-145 = experiment: Cell growth inhibition of LNCaP and DU-145 by DES (FIG. 14); format: cell-based; conditions: previous study
DU-145 cell cycle = experiment: Cell cycle distribution by DNA flow cytometry, DU-145; format: cell-based; conditions: for cell cycle arrest phase / increase in the number of cells arrested in the S phase compared to the control / cells arrested in the G2M phase: DU-145; for increase in the number of cells arrested in the S phase compared to the control: FIG. 6
LNCaP cell cycle = experiment: Cell cycle distribution by DNA flow cytometry, LNCaP; format: cell-based, Human; set-up: cells arrested in the G1 phase: dose or concentration left out as unconfirmed
From the text: The cell cycle is the program for cell growth and cell proliferation (cell division). There are four phases of the cell cycle: G1, S, G2, and M. The G1 phase is characterized by gene expression and protein synthesis, and is regulated primarily by extracellular stimuli. During the S phase, the cell replicates its DNA. During the G2 phase, the cell undergoes growth and protein synthesis in preparation for cell division. The M phase is characterized by cytokinesis of the cell into two daughter cells.
The effect of oridonin and lupulone on LNCaP cells was determined by the following method. 2×10^6-4×10^6 cultured cells were exposed to varying concentrations (e.g., 1.5 microgram/milliliter (ug/ml)-3 ug/ml) of oridonin or lupulone for 24-48 hours in 12.5 cm^2 area flasks before being harvested. The cells were washed with phosphate buffered saline (PBS) and fixed in ice-cold 70% ethanol.
The distribution of cells in various stages of the cell cycle were determined by first staining the cells with the DNA specific fluorochrome, and then by measuring cellular DNA content with an ELITE ESP flow cytometer (Coulter Inc., Fl.) using UV laser illumination. The Multicycle program (Phoenix Flow Systems) was used to deconvolute the DNA frequency histograms to estimate the frequency of cells in different phases of the cell cycle, and those in apoptosis.

MCF-7 cells = experiment: MTT cell proliferation assay, MCF-7; format: cell-based; conditions: for ED50 values from MTT Assay, MCF-7: concentration giving 50% inhibition of cancer cell growth, 72 hours, linear interpolation of FIGS. 1-3
Experimental: (§1) The cells were routinely seeded at 1×10^5 cells/ml in T-75 flasks, allowed to attach overnight, and then treated with the oridonin or the lupulone. At different times, the cells were harvested by trypsinization.
(§2) The inhibitory effect on a cell's ability to divide was determined by an MTT (3-(4,5-dimethylthiazol-2-yl)-2,5-diphenyl tetrazolium bromide) assay. The assay reagents were purchased from Boehringer Mannheim (Roche Diagnosis Corp, Indianapolis, Ind.). […] The MTT assay provides a method whereby cell proliferation can be determined by […]. The protocol for the cell viability assay was provided by Boehringer Mannheim and modified as described below.
(§3) The cells were then incubated at […] and allowed to attach to the plates. After 24 hours, 20 microliter aliquots having varying concentrations of oridonin or lupulone were added to the cell culture. Each aliquot was plated into 3 wells to obtain mean values. […] The plates were incubated at 37° C. in a CO2 incubator for 72 hours. After 72 hours, the culture medium was carefully removed without disturbing the cells and replaced by 100 microliters of fresh cell medium. 10 microliters of MTT was added to each well and the plates were incubated in the CO2 incubator at 37° C. for 4 hours. Afterwards, 100 microliters of sodium dodecylsulfate (SDS) solubilizing reagent (from Boehringer Mannheim) was added to each well. The plates were placed in the CO2 incubator at 37° C. for about 10-14 hours. Afterwards, the cell concentration of each plate was determined by an ELISA Reader (EL800, Bio-Tek Instruments, Inc.) at a wavelength of […]. The percent cell viability was calculated according to the equation below: [formula]
(§4) where V is the percent cell viability, Acontrol is the absorption of the control cells, and Atreated is the absorption of the treated cells.

MCF-7 cell cycle = experiment: Cell cycle distribution by DNA flow cytometry, MCF-7; format: cell-based; conditions: for cells arrested in the G1 phase: FIG. 7
DU-145 cells = experiment: MTT cell proliferation assay, DU-145; format: cell-based; conditions: for ED50 values from MTT Assay, DU-145: concentration giving 50% inhibition of cancer cell growth, 72 hours, linear interpolation of FIGS. 1-3
Experimental: as §1, §2, §3, §4

LNCaP cells [1] = experiment: MTT cell proliferation assay, LNCaP; format: cell-based, Human; conditions: for ED50 values from MTT Assay, LNCaP: concentration giving 50% inhibition of cancer cell growth, 72 hours, linear interpolation of FIGS. 1-3
Experimental: as §1, §2, §3, §4

LNCaP cells [2] = experiment: TdT DNA strand break apoptosis assay, LNCaP; format: cell-based, Human; conditions: oridonin 13.7uM, 48 hours, FIG. 13
Experimental: To determine apoptosis in cells, a quantitative assay for the detection of DNA breakage, using the terminal deoxyribonucleotide transferase (TdT) color reaction assay (TiterTACS, Trevigen, Gaithersburg, Md.), was employed. Cells were fixed in 1% ice-cold formaldehyde for 15 minutes and postfixed in 70% ethanol overnight at −20° C. DNA strand breaks were directly labeled with fluorescent (2′-deoxyuridine 5′-triphosphate) dUTP in the reaction catalyzed by exogenous terminal deoxynucleotidyltransferase using the APO-Direct kit (Phoenix Flow System, San Diego, Calif.) according to the protocol provided with the kit. The green (FITC) and red (PI) fluorescence intensities of cells subjected to labeling DNA strand breaks with the use of TdT were measured using a FACScan Flow Cytometer (Becton Dickinson Immunocytometry Systems, San Jose, Calif.). The data from 10^4 cells per sample were collected, stored and analyzed using CELL Quest software (Becton Dickinson and Co.).

Bax = experiment: Flow cytometric measurement of Bax protein in LNCaP; format: cell-based, Human; conditions: flow cytometry
Experimental: (§5) To further verify the increase in Bax and the decrease in Bcl-2 proteins, and to determine the p53 protein levels induced by oridonin, flow cytometric measurement was performed to compare the results as obtained by Western blot. Following treatment with 3-9 μM of oridonin for 48 h, the LNCaP cells were trypsinized and washed with PBS. The cells were fixed in 1% formaldehyde in PBS on ice for 10 minutes and then permeabilized with 70% ethanol at −20° C. After fixation, the cells were rinsed with PBS, treated with a blocking solution containing 1% (w/v) bovine serum albumin (BSA) and 0.1% sodium azide in PBS (PBS-BSA) for 2 min at room temperature. The cells were subsequently added to a 100 μl aliquot of BSA/PBS solution containing 1:50 diluted primary antibody for Bcl-2, Bax (stained LNCaP) and p53. The mixtures were incubated at room temperature in the dark for 1 hr. The cells were subsequently washed twice with PBS-BSA buffer. The secondary antibody was added at 1:50 dilution for 30 minutes at room temperature in the dark, then counterstained for DNA by the addition of 1 ml of PI […] solution (final PI concentration 5 μg/ml) containing 100 μg/ml of RNAse A. Cellular fluorescence was measured with the ELITE ESP flow cytometer/cell sorter (Coulter Inc., Miami, Fla.) using the argon ion laser (emission at 488 nm). Fluorescence signals were collected using the standard configuration of the flow cytometer (green fluorescence for antibodies containing Bcl-2, Bax, and p53, and red fluorescence for DNA staining). 10,000 cells were analyzed per sample.

p53 = experiment: Flow cytometric measurement of p53 protein in LNCaP; format: cell-based, Human; conditions: for increase in p53 concentration: FIG. 12
Experimental: as §5

[3] = tested on: Bax and Bcl-2 protein expression; experiment: Western blot of Bax and Bcl-2 in LNCaP; format: cell-based, Human; conditions: 8.24 uM and 13.74 uM of oridonin, 48 hours, FIG. 11
Experimental: To determine the Bcl-2:Bax ratio in oridonin-incubated LNCaP cells, a Western blotting procedure was performed. LNCaP cells were prepared such that one sample contained was incubated in the absence of oridonin, another sample in 8.24 uM of oridonin, and another sample in 13.74 uM of oridonin. The samples were incubated for 48 hours. Equal amounts of protein (10 micrograms) from LNCaP cell lysates were applied to a 10% SDS/PAGE (sodium dodecylsulfate/polyacrylamide gel electrophoresis) gel, and were then transferred to a PVDF membrane. The blots were probed with one of two primary antibodies comprising 1:100 Anti-Bax YTH-2D2 (Lot#3148E0, R&D, MN USA), and 1:100 Bcl-2 Oncoprotein (Clone 124, No. M0887), followed by second antibody exposure of 1:1000 Anti-mouse IgG-HRP (se-2005, Santa Cruz Biotechnology, USA) for 1 hour at […] temp. The immuno-binding signals were detected by the chemiluminescence method (ECL Western blotting system). The experiments were run in triplicates.

Bcl-2 = experiment: Flow cytometric measurement of Bcl-2 protein in LNCaP; format: cell-based, Human; conditions: 8.24 uM oridonin, flow cytometry, CTRL 11.3
Experimental: as §5, with “The cells were subsequently added to a 100 μl aliquot of BSA/PBS solution containing 1:50 diluted primary antibody for Bcl-2, Bax (stained LNCaP) and p53. The mixtures were incubated at room temperature in the dark for 1 hr. The cells were subsequently washed twice with PBS-BSA buffer.” left out

[4] = about 100 ug/ml of lupulone, FIG. 2
[5] = about 5 ug/ml of oridonin, FIG. 1

CC/C(=C(/CC)c1ccc(O)cc1)c1ccc(O)cc1 [DES, reference compound]
times more sensitive in inhibiting LNCaP than in inhibiting DU-145 (LNCaP and DU-145): about 2.5 times
cell cycle arrest phase (DU-145 cell cycle; DES): G2M phase arrest
cell cycle arrest phase (LNCaP cell cycle; DES (30 μM per FIG. 15 legend)): G2M phase arrest

CC(C)=CCC1=C(O)C(CC=C(C)C)(CC=C(C)C)C(=O)C(C(=O)CC(C)C)=C1O [Lupulone, lupulone]
proliferation decreased compared to the control (MCF-7 cells; about 100 ug/ml of lupulone, FIG. 3): more than 85%
ED50 values from MTT Assay, MCF-7 (MCF-7 cells): 56.62 µg/mL (≈ 137 µM)
effect on cell cycle (MCF-7 cell cycle; 60 micromolar (25 microgram/milliliter)): G1 phase arrest
effect on cell proliferation (MCF-7 cell cycle; 120 micromolar (50 microgram/milliliter)): complete block of cell proliferation
proliferation decreased compared to the control (DU-145 cells; [4]): more than 55%
ED50 values from MTT Assay, DU-145 (DU-145 cells): 89.7 µg/mL (≈ 216 µM)
proliferation decreased compared to the control (LNCaP cells [1]; [4]): more than 75%
ED50 values from MTT Assay, LNCaP (LNCaP cells [1]): 36.53 µg/mL (≈ 88.1 µM)
increase of cells arrested in the G2M phase compared to cells not exposed (LNCaP cell cycle; lupulone (50 μg per FIG. 5 legend)): about 100%

oridonin
ED50 values from MTT Assay, MCF-7 (MCF-7 cells): 1.71 µg/mL
absorbance reading of MTT (MCF-7 cells; under 15 ug/ml of oridonin, FIG. 3): 0
cell apoptosis (LNCaP cells [2]): About 6%
increase in the ratio of Bax/Bcl-2 (Bax; 8.24uM of oridonin): ~75%
Bax/Bcl-2 (Bax; 8.24 uM oridonin, CTRL 1): 1.8
Bax (Bax; 8.24 uM oridonin, CTRL 11.8): 14.5
increase in p53 concentration (p53; 8.2 uM of oridonin): Approximately 40%
increase in the ratio of p53/Bcl-2 (p53; 8.24uM oridonin, flow cytometry): 100%
p53/Bcl-2 (p53; 8.24 uM oridonin, flow cytometry, CTRL 1): 2.0
p53 (p53; 8.24 uM oridonin, flow cytometry, CTRL 8.8): 12.3
increase in p53 concentration (p53; 13.74 uM of oridonin): ~100%
ratio of Bax/Bcl-2 by Western blot [3]: increased significantly
Bcl-2 (Bcl-2): 7.9
cells arrested in the G1 phase (DU-145 cell cycle; DU-145 (so in the source), about 8.20 uM-22 uM of oridonin, FIG. 10): over 60%
increase in the number of cells arrested in the S phase compared to the control (DU-145 cell cycle; 1.5 ug/ml of oridonin): ~16%
increase in the number of cells arrested in the S phase compared to the control (DU-145 cell cycle; 3.0 ug/ml of oridonin): about 30%
cells arrested in the G2M phase (DU-145 cell cycle; FIG. 9d): about 37%
cells arrested in the G2M phase (DU-145 cell cycle; about 8.20 uM-22 uM of oridonin, FIG. 10): 30-55%
cell cycle arrest phase (DU-145 cell cycle; oridonin): G2M arrest
cells arrested in the G1 phase (MCF-7 cell cycle; 25 ug/ml): about 35%
cells arrested in the G1 phase (MCF-7 cell cycle; 50 ug/ml): about 90%
proliferation decreased over that of the control (DU-145 cells; [5]): more than 80%
ED50 values from MTT Assay, DU-145 (DU-145 cells): 3.03 µg/mL
proliferation reduced over that of the control (LNCaP cells [1]; [5]): about 75%
ED50 values from MTT Assay, LNCaP (LNCaP cells [1]): 2.11 µg/mL
more cells arrested in the G1 phase compared to cells not exposed (LNCaP cell cycle; 3 ug/ml of oridonin, FIG. 5): over 25%
cell cycle arrest phase (LNCaP cell cycle; oridonin): G1 cell cycle arrest
cells in the G1 phase of the cell cycle (LNCaP cell cycle; oridonin 3 μg/ml, 24 hr, FIG. 4): over 65%
cells arrested in the G1 phase (LNCaP cell cycle; oridonin, FIG. 9b): about 68%
